According to US11357806B2, “Method of isolating sphingolipids from cordyceps and their use” (Macau University of Science and Technology, priority 2015, dated 2022):
Like-named read-outs stand apart in the source and are kept apart here.

Legend:
[1] = system: LPS-induced splenic lymphocytes; assay: LPS-induced primary splenocyte proliferation model (MTT, immunosuppressive activity assay); format: cell-based, ICR mice; conditions: Mus musculus, Splenic lymphocyte, LPS 2.5 mg/L, 48 h culture, read-out: IC50 (concentration that reduced cell proliferation by 50%)
Method: (§1) Male ICR mice (Weight, 10 to 22 g) were provided by the Comparative Medicine Center of Yangzhou University. The animal studies were approved by the Animal Ethics Committee of China Pharmaceutical University. The animals were cared for according to the regulations of the Animal Committee.
(§2) ICR mice were killed by cervical dislocation, and the spleens were removed aseptically. Mononuclear cell suspensions were prepared and re-suspended in RPMI 1640 medium (containing 10% FBS). The resulting splenic lymphocytes suspensions (4×10^6 cells/mL) were cultured in 96-well plate (100 μL suspensions each well). In the control group, 100 μL 10% FBS in RPMI1640 was added into each well (five replicates of wells). In the LPS or Con A model group, 100 μL LPS or Con A (2.5 mg/L of final concentration) was added into each well (five replicates of wells). For the positive drug treatment group, 50 μL of LPS or Con A (2.5 mg/L of final concentration) and 50 μL of FTY720 with a set of final concentrations (0.001, 0.003, 0.01, 0.03, 0.1, 0.3, 1, 3 and 10 μM) were added into each well. In the test group, 50 μL of LPS or Con A (2.5 mg/L of final concentration) and 50 μL of the four SPL fractions with a set of final concentrations were added into each well. […] Then the OD490 readings were taken with a microplate reader (Bio Tek, Tigan Street Winooski, Vt., USA). […]

[2] = system: Con A-induced splenic lymphocytes; assay: Con A-induced primary splenocyte proliferation model (MTT, immunosuppressive activity assay); format: cell-based, ICR mice; conditions: Mus musculus, Splenic lymphocyte, Con A 2.5 mg/L, 48 h culture, read-out: IC50 (concentration that reduced cell proliferation by 50%)
Method: as §1, §2

## CCCCCCCCc1ccc(CCC(N)(CO)CO)cc1 [FTY720]
[1]
  IC50: 0.15 µg/mL
[1]; value in brackets
  IC50: 430 nM
[2]
  IC50: 0.11 µg/mL
[2]; value in brackets
  IC50: 310 nM
